# Source: BindingDB's records for doi:10.7270/Q2BR8QM3 (Nmmlsc, 2008)
# Where a name gives a salt, the structure may show the parent alone.
# Target: T1, Bcl-2-like protein 2 (Homo sapiens, UniProt Q92843)
# T1 sequence (Q92843 whole entry): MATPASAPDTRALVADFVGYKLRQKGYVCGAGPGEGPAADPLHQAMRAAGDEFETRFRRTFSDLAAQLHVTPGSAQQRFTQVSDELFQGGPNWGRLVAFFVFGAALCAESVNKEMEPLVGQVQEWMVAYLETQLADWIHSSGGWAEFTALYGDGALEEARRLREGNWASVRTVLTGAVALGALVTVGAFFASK
# Test: Bcl-W/Bim binding regulators – biochemical, multiplexed, bead-based flow cytometry, fluorescence, dose response (AID 1330)
# [1] = inactive by the depositor's call
structure (smiles),measurement,setting,value
O=c1[nH]c2ccc(N=Cc3c(O)ccc4cc(Br)ccc34)cc2[nH]1 [SMR000171789],EC50,,4.15 µM
Clc1nc(NCc2cccnc2)nc(N2CCOCC2)n1 [MLS000121154],EC50,[1],18.5 µM
"Cc1cc(OCc2cn3cccnc3n2)ccc1Cl [2-[(4-chloranyl-3-methyl-phenoxy)methyl]imidazo[1,2-a]pyrimidine]",EC50,[1],19.8 µM
COc1cc(OC)c([N+](=O)[O-])cc1[CH+][N-]NC(=O)c1ccncc1 [SMR000306621],EC50,[1],25.7 µM
O=C(/C=C\c1ccc(-c2ccccc2)o1)c1ccccc1 [(Z)-1-phenyl-3-(5-phenyl-2-furanyl)-2-propen-1-one],EC50,[1],10.6 µM
O=C1c2ccccc2-c2onc3ccc(N4CCCC4)c1c23 [SMR000279741],EC50,[1],10.9 µM
CN1CCc2cccc3c2[C@@H]1Cc1ccc(O)c(O)c1-3,EC50,,9.95 µM
"CCc1ccc(/C=C/C(=O)c2cc(Br)ccc(=O)c2O)cc1 [5-bromo-3-[(E)-3-(4-ethylphenyl)-1-oxoprop-2-enyl]-2-hydroxy-1-cyclohepta-2,4,6-trienone]",EC50,[1],52.1 µM
"Cc1cccc(C(=O)/N=c2\c(C#N)cc3c(=O)n4cccc(C)c4nc3n2Cc2ccco2)c1 [N-[3-cyano-1-(furan-2-ylmethyl)-10-methyl-5-oxodipyrido[3,4-c:1',2'-f]pyrimidin-2-ylidene]-3-methylbenzamide]",EC50,[1],41.3 µM
COc1cc2nc(=S)n(CCCN3CCOCC3)c(N)c2cc1OC,EC50,[1],9.25 µM
O=C1c2ccccc2-c2onc3ccc(NCc4ccco4)c1c23 [MLS000080234],EC50,,8.37 µM
"COc1cccc2c(SCC(=O)NN=Cc3ccc(O)cc3O)cc(C)nc12 [N'-[(E)-(2-hydroxy-4-oxo-1-cyclohexa-2,5-dienylidene)methyl]-2-[(8-methoxy-2-methyl-4-quinolinyl)thio]acetohydrazide]",EC50,,55.2 µM
O=C(/C=C/c1ccc(-c2ccccc2)o1)c1ccccc1 [(E)-1-phenyl-3-(5-phenyl-2-furanyl)-2-propen-1-one],EC50,[1],13.9 µM
COC(=O)CSc1ncnc2c1sc1nc(-c3ccco3)c3c(c12)CC(C)(C)OC3 [MLS000039339],EC50,[1],34 µM
"COc1ccc(C2=Nn3c(nnc3-c3ccco3)SC2)cc1OC [6-(3,4-Dimethoxy-phenyl)-3-furan-2-yl-7H-[1,2,4]triazolo[3,4-b][1,3,4]thiadiazine]",EC50,[1],4.24 µM
"Cc1cc(C)nc(SCc2cc(=O)c(OC(=O)c3ccc(Cl)c([N+](=O)[O-])c3)co2)n1 [4-chloro-3-nitrobenzoic acid [6-[[(4,6-dimethyl-2-pyrimidinyl)thio]methyl]-4-oxo-3-pyranyl] ester]",EC50,[1],6.18 µM
Cc1ccc(C)c(/C=C/C(=O)c2ccccc(=O)c2O)c1,EC50,[1],8.51 µM
CN1CCc2cccc3c2[C@H]1Cc1ccc(O)c(O)c1-3 [APOMORPHINE HYDROCHLORIDE],EC50,,19 µM
"COc1cc(C2Nc3cccc4cccc(c34)N2)ccc1OC(C)=O [Acetic acid 4-(2,3-dihydro-1H-perimidin-2-yl)-2-methoxy-phenyl ester]",EC50,[1],11.5 µM
COc1ccc(C)cc1-n1c(=O)c2ccccc2c2ccccc2c1=O [MLS000682999],EC50,[1],24.2 µM
CCOc1cc(C2Nc3cccc4cccc(c34)N2)ccc1O [MLS000068595],EC50,[1],31.7 µM
COc1cc2nc(=S)[nH]c(NCCc3ccc(S(N)(=O)=O)cc3)c2cc1OC [MLS000674601],EC50,[1],0.67 µM
Cc1ccc(-c2ccc(/C=C3\SC(N4CCOCC4)=NC3=O)o2)cc1 [(5Z)-5-[[5-(4-methylphenyl)-2-furanyl]methylidene]-2-(4-morpholinyl)-4-thiazolone],EC50,[1],89 µM
CCN1/C(=C/C(C)=C/c2sc3ccccc3[n+]2CC)Sc2ccccc21 [SMR000354813],EC50,,37.5 µM
"CN(N=Cc1ccncc1)C1=NS(=O)(=O)c2ccccc21 [isonicotinaldehyde (1,1-dioxido-1,2-benzisothiazol-3-yl)(methyl)hydrazone]",EC50,[1],2.73 µM
O=C(Nc1cccc(Cl)c1)Nc1ccnc(-c2cccnc2)n1 [SMR000337179],EC50,[1],1.59 µM
C#CCn1cc(C=C2C(=O)c3ccccc3C2=O)c2ccccc21 [SMR000196125],EC50,,9.02 µM
